Reference: PubChem BioAssay AID849 (SRMLSC, 2007)
pIC50: −log10 of the molar value. Calls of active or inactive are those of the source. How the calls were made is not given here.

Tested on: Saccharomyces cerevisiae lifespan shortening, growth inhibition
Test: Saccharomyces cerevisiae growth inhibition potency – dose response (AID 849);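 further: yeast growth read as optical density after two days at 30 degrees C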

Row | SMILES | pIC50 | IC50
1 | Cc1c2cc(O)c(=O)cc-2oc2cc(O)c(O)cc12 | 4.55 | –
2 | Cn1c2ccccc2c(=O)n2c(=O)c3ccccc3cc12 | 4.28 | –
3 | CCCCCCCCCCCCCCCC[n+]1ccc(/C=N/O)cc1 | 5.81 | –
4 | CC(C)(C)N/N=C/c1cc(Cl)cc([N+](=O)[O-])c1O | 4.89 | –
5 | CC1CCC2(CC1)NC(=S)N(c1ccccc1)N2 (stereo not drawn) | 4.63 | –
6 | O=C1C=C(c2ccccc2)C(=O)N1Nc1ccccc1 | 4.92 | –
7 | COc1ccc(-c2nncnn2)cc1 | 5.00 | –
8 | COC(=O)c1ccc(C(=O)OC)c(NC(=O)CSc2cccc[n+]2[O-])c1 | 6.09 | –
9 | c1ccc(-c2csc3nnc(SCc4ccc5c(c4)OCO5)n23)cc1 | – | > 100 µM (inactive)
10 | CC(C)CNC(=O)CN(C1CCCCC1)S(C)(=O)=O | – | > 100 µM (inactive)
11 | O=c1c(-c2ccc(Cl)cc2)[n+]([O-])c2ccccc2n1O | 5.10 | –
12 | CC(=O)c1c(C)oc2c1C(=O)c1ccccc1C2=O | – | > 100 µM (inactive)
13 | C=CCSC(=C(C#N)C#N)c1cc2c([nH]1)CCCC2 | – | > 100 µM (inactive)
14 | CC1=NOC(=O)/C1=C/c1ccc(-c2ccc(Cl)cc2)o1 | – | > 100 µM (inactive)
15 | O=C(c1cc(-c2ccccc2O)on1)N1CCc2ccccc2C1 | – | > 100 µM (inactive)
16 | CC(C)(CNC(=S)NCCc1ccccc1)CNC(=S)NCCc1ccccc1 | – | > 100 µM (inactive)
17 | Cc1nn(-c2ccccc2)c2sc(C(=O)O)cc12 | 4.33 | –
18 | COc1ccccc1OCC(=O)n1cc(C(=O)c2cc(Cl)cc(Cl)c2O)cn1 | 5.23 | –
19 | CCCCSc1nc(C)c(C(C)=O)cc1C#N | – | > 100 µM (inactive)
20 | c1ccc(-c2nc(-n3ccnc3)nc(-n3ccnc3)n2)cc1 | 4.47 | –
21 | CCOC(=O)c1c(N)sc2c(OC)c(Br)ccc12 | – | > 100 µM (inactive)
22 | CC1=C(C)/C(=N\OS(=O)(=O)c2ccc(C)cc2)C=CC1=O | 4.90 | –
23 | Cc1cc(C)c2c(N=NN(C)C)[nH]nc2n1 | 4.91 | –
24 | Cc1cc(-c2ccco2)c(C#N)c2nc3ccccc3n12 | 5.24 | –

Row | SMILES | pIC50 | IC50
25 | CCc1cccc(C)c1NC(=S)NCc1ccc2[nH]c(C)cc2c1 | 4.43 | –
26 | Cc1ccc(O)c(-c2cc(-c3ccccc3C)[nH]n2)c1 | 4.61 | –
27 | Cc1ccc(O)c(-c2cc(-c3cccc(F)c3)n[nH]2)c1 | 4.71 | –
28 | Cc1cccc(/C(N)=N/OC(=O)c2ccc(F)cc2)c1 | 4.62 | –
29 | O=[N+]([O-])c1cc(Cc2ccccc2)cc(C=Nc2ccc(N3CCOCC3)cc2)c1O | – | > 100 µM (inactive)
30 | CCOC(=O)c1c(N)sc(C(O)(C(F)(F)F)C(F)(F)F)c1-c1ccc(F)cc1 | – | > 100 µM (inactive)
31 | Cc1ccc(NN2C(=O)C=C(c3ccc(Cl)cc3)C2=O)cc1 | 4.74 | –
32 | O=C(/C(=N/N=C/c1ccc(O)c(O)c1O)c1ccccc1)c1ccccc1 | 4.59 | –
33 | CCOC(=O)c1c(N)sc(C(O)(C(F)(F)F)C(F)(F)F)c1-c1ccc(Cl)cc1 | – | > 100 µM (inactive)
34 | O=C(O)Cc1ccc2sc(-c3ccccc3)nc2c1 | – | > 100 µM (inactive)
35 | CCCc1ccc(Oc2c(-c3ccc(O)c(C)c3O)n[nH]c2C)cc1 | 5.15 | –
36 | O=C1c2cccc3c(Cl)ccc(c23)C(=O)N1O | 4.66 | –
37 | COc1ccc(/C(C)=N/NC(=O)c2ccc(CSc3cccc4cccnc34)cc2)cc1OC | – | > 100 µM (inactive)
38 | COc1ccc(C(=O)N/N=C/c2sc3ccccc3c2O)cc1 | – | > 100 µM (inactive)
39 | COc1ccc(-c2cc3nc(C)cc(N4CC(C)CC(C)C4)n3n2)cc1 (stereo not drawn) | 4.37 | –
40 | Cc1ccnn2cc3c(=O)n(C)c(=O)n(C)c3c12 | 4.64 | –
41 | O=C(Nc1cccc(N=Cc2cc(Br)cc(Br)c2O)c1)c1ccco1 | 4.71 | –
42 | Cc1onc(-c2ccccc2)c1C(=O)NC(=S)NNC(=O)c1ccc(O)cc1O | – | > 100 µM (inactive)
43 | OCc1ccnc2c(O)cccc12 | – | > 100 µM (inactive)
44 | Oc1cccc(C=NCc2ccccc2)c1O | 5.04 | –
45 | Cc1sc2ncnc(N/N=C/c3ccccc3O)c2c1C | 4.37 | –
46 | Cc1ccc(NC(=S)Nc2ccc(Cl)c(Cl)c2)c(OC(F)F)c1 | 4.65 | –
47 | COc1ccc(OCc2nnc3n2N=C(c2ccc(OC)cc2)CS3)cc1 | – | > 100 µM (inactive)
48 | CC(C)N=c1scc(-c2cccs2)n1/N=C/c1ccc(O)c(O)c1O | – | > 100 µM (inactive)

Row | SMILES | pIC50 | IC50
49 | O=C1c2ccccc2C(=O)N1Cc1ccco1 | – | > 100 µM (inactive)
50 | O=C(CN1CCN(c2ncc(C(F)(F)F)cc2Cl)CC1)NCCNc1ncc(C(F)(F)F)cc1Cl | 4.37 | –
51 | Cc1cc(Cl)ccc1N=c1ssnc1Cl | – | > 100 µM (inactive)
52 | CC1CCCC2(C1)NC(=S)c1c(sc3c1CCCC3)N2 (stereo not drawn) | – | > 100 µM (inactive)
53 | O=C(Nc1nc(-c2ccccn2)cs1)c1ccc(Cl)s1 | 5.55 | –
54 | Cc1cccc(N=C2Sc3nc4c(C)c(C)ccc4cc3CN2CCN2CCOCC2)c1 | 4.35 | –
55 | O=C1Cc2ccccc2C(=O)N1CCc1ccccc1 | – | > 100 µM (inactive)
56 | Cc1ccc(C(C[N+](=O)[O-])n2nc(C)cc2C)cc1 (stereo not drawn) | 4.72 | –
57 | O=c1cc(-c2ccccc2)[nH]n1-c1nc2ccccc2[nH]1 | 4.91 | –
58 | CCOCC(=O)Nc1nc2c(s1)C(=O)CC(C)(C)C2 | – | > 100 µM (inactive)
59 | NNC(=O)c1ccc(COc2ccc3c(c2)CCC3)o1 | 4.82 | –
60 | CCN(CC)c1ccc(S(=O)(=O)N2CCOCC2)cc1NC(=O)CSc1cccc[n+]1[O-] | 4.78 | –
61 | CC(Oc1ccc(Cl)cc1Cl)C(=O)NC1=NN(c2ccccc2)C(=O)C1 (stereo not drawn) | 5.03 | –
62 | O=C1OCC(CO)(CO)N=C1NNc1ccccc1Cl | 5.19 | –
63 | CC1=CC(=O)C=C(C)C1=NOS(=O)(=O)c1ccccc1 | – | > 100 µM (inactive)
64 | Nc1c(C(=O)NCCc2ccccc2)c2nc3ccccc3nc2n1CCN1CCOCC1 | 4.65 | –
65 | CC(N=Cc1cccc(O)c1O)c1ccccc1 (stereo not drawn) | 5.04 | –
66 | OC(Cn1cncn1)(c1ccccc1)c1ccccc1 | 4.86 | –
67 | CCOc1cc(C2CC(=O)N3CN(C4CCCCC4)CSC3=C2C#N)ccc1O (stereo not drawn) | – | > 100 µM (inactive)
68 | CCc1ccc2c(c1)C1(NN=C(c3cccc4ccccc34)S1)C(=O)N2 (stereo not drawn) | 4.38 | –
69 | CCC(=O)NC(c1ccc(C)cc1)c1cc([N+](=O)[O-])c2cccnc2c1O (stereo not drawn) | 4.60 | –
70 | CC(=O)Oc1ccc(N2C(=O)C3C(C2=O)C2(C)C=CC3(C)O2)cc1 (stereo not drawn) | – | > 100 µM (inactive)
71 | COc1cccc(-n2nnnc2S(C)(=O)=O)c1 | 5.02 | –
72 | Cc1cccc(C(=O)NC(=S)NNC(=O)c2cccs2)c1 | 4.51 | –

Row | SMILES | pIC50 | IC50
73 | CC(C)(C)C(=O)O/N=C1/C(=O)N(c2ccccc2)c2ccccc21 | 4.51 | –
74 | CCc1cc2c(cc(C(=O)O)n2C)s1 | 4.42 | –
75 | CCOc1cc(/C=N/Nc2ccccc2Cl)ccc1OCC(=O)O | 4.94 | –
76 | CC(=O)O/N=C/c1c(N2CCOCC2)n(C)c2ccccc12 | 4.91 | –
77 | Cc1c(C=O)c2ccccn2c1C(=O)c1ccncc1 | – | > 100 µM (inactive)
78 | CCC(=C(c1ccc(OC)cc1)c1ccc(OC)cc1)c1cn(CC(O)CN2CCN(C)CC2)c2ccccc12 (stereo not drawn) | 4.43 | –
79 | Clc1ccc(COC(Cn2ccnc2)c2ccc(Cl)cc2Cl)c(Cl)c1 (stereo not drawn) | > 7.01 | –
80 | Cc1ccc(C(=O)c2c(C)oc3c2C(=O)C(=O)c2ccccc2-3)cc1 | 4.32 | –
81 | Cc1ccc(-c2cc(C(=O)N3N=C(C(F)F)CC3(O)C(F)F)c3ccccc3n2)cc1C (stereo not drawn) | – | > 100 µM (inactive)
82 | COc1ccc(Br)cc1C1CC(=O)N2CN(C)CSC2=C1C#N (stereo not drawn) | – | > 100 µM (inactive)
83 | CCC(C)NC(=O)CS(=O)Cc1nc(-c2ccccc2C)oc1C (stereo not drawn) | – | > 100 µM (inactive)
84 | CC(=O)N1N=C(c2ccc(Cl)cc2)OC1(C)C | – | > 100 µM (inactive)
85 | CCc1cccc2c(C(=O)COC(=O)c3ccc([N+](=O)[O-])s3)c[nH]c12 | 4.53 | –
86 | c1ccc2c(c1)oc1c(N3CCOCC3)ncnc12 | 4.49 | –
87 | O=C(N/N=C/c1sc2ccccc2c1O)c1cccc2ccccc12 | 4.68 | –
88 | O=c1cc(C(F)(F)F)[nH]c2c(C(F)(F)F)cccc12 | 5.04 | –
89 | Cc1ccccc1OCCCN1C(=O)C(=O)c2cccc(C)c21 | – | > 100 µM (inactive)
90 | CCN(CC)N=Nc1[nH]nc2nc(C)cc(C)c12 | 5.11 | –
91 | CCCCc1oc2ccccc2c1C(=O)c1cc(I)c(OCCN(CC)CC)c(I)c1 | 5.11 | –
92 | CCc1ccc(S(=O)(=O)NCCc2cn3ccsc3n2)s1 | – | > 100 µM (inactive)
93 | Oc1c(CN2CCCCC2)cc(Br)c2cccnc12 | 4.95 | –
94 | O=C(O)c1ccc(SCc2cnc(Cl)s2)cc1 | 5.13 | –
95 | Clc1ccc(N/N=C/c2ccncc2)cc1Cl | – | > 100 µM (inactive)
96 | O=C(Nc1cc(C(F)(F)F)ccc1Cl)C(Sc1cccc[n+]1[O-])c1ccccc1 (stereo not drawn) | 5.31 | –

Row | SMILES | pIC50 | IC50
97 | c1ccc(-c2ccc(-c3ccccn3)nn2)nc1 | 4.31 | –
98 | COc1ccc(NCc2nc3ccccc3n2CCOc2ccc(C)cc2)cc1 | 4.51 | –
99 | Cc1nn2c(-c3ccco3)nnc2c2ccccc12 | 4.58 | –
100 | Cc1ccc(/C(N)=N/OC(=O)c2ccc(Cl)cc2Cl)cc1 | 4.74 | –
101 | OC(COc1ccc2ccccc2c1Br)Cn1cnc(-c2ccccc2)c1 (stereo not drawn) | 4.31 | –
102 | COC(=O)Cc1cc(=O)n(-c2nc3ccccc3[nH]2)[nH]1 | 4.66 | –
103 | O=C(NC1CCCCC1)Sc1ccc(Cl)cc1 | – | > 100 µM (inactive)
104 | C=C(C)COc1ccc(-c2[nH]ncc2-c2ccccc2)c(O)c1 | 4.69 | –
105 | Cc1nc(N/N=C/c2ccccn2)sc1C | 4.47 | –
106 | Cc1cc(N/N=C/c2ccc(Cl)cc2Cl)nc(NCc2ccccc2)n1 | 4.54 | –
107 | O=C(Nc1ccc(Cl)cc1)ON=C1CCCC1 | 5.43 | –
108 | COc1ccc(CN2CN(C(C)C)CSC2=S)cc1 | 4.45 | –
109 | O=[N+]([O-])c1ccc(O)c(/C=N/Nc2ccccn2)c1 | 4.51 | –
110 | Oc1c(N=Nc2ccccn2)ccc2ccccc12 | 4.81 | –
111 | Clc1cccc(CN2COc3c(cc(Cl)c4cccnc34)C2)c1 | 5.14 | –
112 | COc1ccc2nc(/N=C(\N)NC(=O)Nc3ccccc3)nc(C)c2c1 | 4.30 | –
113 | CCCCCCCCCCn1c2c(c(=N)c3c1CCC3)CCC2 | 5.04 | –
114 | COc1ccc2c(c1)S/C(=C\C(=O)c1ccncc1)N2C | 5.27 | –
115 | Cc1ccc(C(=O)Oc2ccc(Cl)c3cccnc23)cc1[N+](=O)[O-] | 4.32 | –
116 | COc1cc(/C=C2\C(=O)ON=C2c2ccccc2)cc(OC)c1OC | 4.73 | –
117 | Cc1nn2c3ccccc3nc2c2ccccc12 | 4.38 | –
118 | Cc1cc(C)nc(N/N=C/C2=C(N3CCOCC3)C(=C\c3ccc(Cl)cc3)/CC2)n1 | – | > 100 µM (inactive)
